Test results from a melting point compilation (Tetko et al.; mined from patent text by program, amines drawn as free bases though some values may be those of a salt).

Compound `O=C(NO)C1(S(=O)(=O)c2ccc(Oc3ccc(Cl)cc3)cc2)CCN(Cc2ccccc2)CC1` has a melting point of 90.4 °C.
`CCOC(=O)Cc1c(C(=O)OCC)c(C)cn1CCOS(C)(=O)=O` showed a melting point of 66 to 68 °C.
`CC(C)(C)c1cc(-c2ccc(NC(=O)COCC(=O)O)cc2)cc(C(C)(C)C)c1O` showed a melting point of 183 to 184 °C.
Work on `CCOC(=O)C(=O)c1csc(NC(=O)CCl)n1` yielded a melting point of 178 to 180 °C.
In the case of `Cc1nc(-c2c(Cl)cc(C(F)(F)F)cc2Cl)[nH]c1C`, the melting point was 281 to 282 °C.
In the case of `COC(=O)c1ccc(C#CC(O)c2ccc3c(c2)C(C)(C)CCC3(C)C)cc1O` (stereo not drawn), the melting point was 92 to 93 °C.
In the case of `Nc1sc(-c2ccccc2)c(CN(C2CCCCC2)C2CCCCC2)c1C(=O)c1ccc(Cl)cc1`, the melting point was 201 to 203 °C.
In the case of `N#Cc1cccc(OCc2ccccc2)c1N`, the melting point was 102 to 103 °C.
Compound `Cc1c(NC(=O)C(CSC(=O)N(C)C)Cc2ccccc2)cccc1C(=O)O` (stereo not drawn) has a melting point of 84 to 87 °C.
For `O=C(c1c(F)cccc1F)N1COCN(c2ccc(Cl)cc2)C1=O`, the melting point was 125 to 126 °C.
In the case of `Nc1c(F)c(N2C[C@@H]3CCCN[C@@H]3C2)c(F)c2c1c(=O)c(C(=O)O)cn2[C@@H]1C[C@@H]1F`, the melting point was 145 to 149 °C.
`Cc1noc2cc3c(cc12)C1(CO3)C(=O)N(Cc2nc(C(=O)N(C)C)co2)c2ccccc21` (stereo not drawn) showed a melting point of 87 to 89 °C.
In the case of `CC(=O)OC1CCC(n2c(Br)nc3cc(Cl)c(Cl)cc32)C1OC(C)=O` (stereo not drawn), the melting point was 140 to 146 °C.
`CC(C)CCCC(C)C1C(O)CC2C3=CC=C4C(C)(C)C(O)CCC4(C)C3CCC21C` (stereo not drawn) gave a melting point of 171 to 173 °C.
In the case of `CN(C)CCCc1ccc(C(=O)/C=C/c2ccc(Cl)cc2)cc1`, the melting point was 83 to 86 °C.
With `Cc1ccc(CN(C(=S)Nc2ccccc2)C2CCCC2)cc1` the melting point was 109 to 111 °C.
Compound `COCOc1cccc(CN(C)c2cnc(-c3ccccc3)c(-c3ccccc3)n2)c1` has a melting point of 109 to 111 °C.
Compound `CC(C)C(=O)c1[nH]c(C(CC2CCCC2)c2ccc(S(C)(=O)=O)cc2)nc1F` (stereo not drawn) has a melting point of 161 to 162 °C.
`Nc1sc2c(c1C(=O)c1ccc(Br)s1)CCCC2` showed a melting point of 160 to 163 °C.
In the case of `CCOC(=O)C(C#N)C(=O)c1nn(-c2ccccc2)c2c1CSc1ccccc1-2` (stereo not drawn), the melting point was 176 to 178 °C.
`O=C1Cc2cccc(CNC(=O)C3Cc4ccccc4N3S(=O)(=O)c3ccc(-c4cccc(C(F)(F)F)c4)cc3)c2N1` (stereo not drawn) gave a melting point of 50 °C.
Work on `Brc1cncc(N2C=CCC2)c1` yielded a melting point of 98 to 99 °C.
`CCOc1nc(=O)n(C(=O)Nc2cccc(Cl)c2)s1` showed a melting point of 141 °C.
For `CCOC(=O)N1C=CSC1C1=C(C)N=CC(OC)(OC)S1` (stereo not drawn), the melting point was 148 to 149 °C.
For `CCOC(=O)CCCOc1cccc2c1SCCC2`, the melting point was 31 °C.
`N=c1[nH]ccn1Cc1ccc(Cl)nc1` gave a melting point of 188 °C.
Work on `CN(CCOc1ccc(CC(SCCN)C(=O)O)cc1)c1nc2ccccc2o1` (stereo not drawn) yielded a melting point of 200 to 201 °C.
Work on `O=S(=O)(CCC=C(F)F)c1nccc(-c2ccccc2)n1` yielded a melting point of 103 to 104 °C.
Compound `NC(=O)Cn1c(-c2ccc(Cl)cc2)nc2ncccc21` has a melting point of 280 to 283 °C.
With `COCC(O)Cn1ncc([N+](=O)[O-])n1` (stereo not drawn) the melting point was 58.2 to 59 °C.
For `CCCc1c(C(=O)C(C)C)c2ccc(C(=O)O)cc2n1Cc1ccc(Br)cc1F`, the melting point was 210 to 211 °C.
Compound `Cc1ncccc1Oc1ccc(NC(=O)NCCc2ccccc2)cn1` has a melting point of 136 to 138 °C.
Compound `CCn1cc(C(=O)O)c(=O)c2c(F)c(F)c(N3CCOCC3)c(F)c21` has a melting point of 281 to 283 °C.
Work on `CCOC(=O)CN1CCN(C(=O)OC(C)(C)C)CC1` yielded a melting point of 67 to 69 °C.
With `Cc1cc2occ(C=O)c(=O)c2cc1C` the melting point was 154 to 156 °C.
`O=[N+]([O-])c1ccc(N2CCN(Cc3ccccc3)CC2)cc1` gave a melting point of 115 to 118 °C.
For `COc1ccccc1CNc1ccc2cc(Nc3nc(C(F)(F)F)co3)ccc2n1`, the melting point was 144 °C.
Compound `O=c1oc(-c2ccccc2)cc(O)c1C(Sc1ccccc1)c1ccc2ccccc2c1` (stereo not drawn) has a melting point of 98 to 101 °C.
For `CC(=O)c1ccc2c(c1)Cc1ccccc1O2`, the melting point was 103 to 104 °C.
Compound `C=CCC(C#N)(C#N)Cc1ccc([N+](=O)[O-])cc1` has a melting point of 94.2 °C.
In the case of `CCOC(=O)c1[nH]cc(-c2ccc(F)cc2)c1-c1ccccc1`, the melting point was 145 to 146 °C.
For `O=C(O)C1Cc2ccccc2N1S(=O)(=O)c1ccc(-c2cc(C(F)(F)F)ccc2Cl)cc1` (stereo not drawn), the melting point was 79 to 83 °C.
With `Fc1cccc(NC2CN([C@H]3CC[C@@H](c4c[nH]c5ccc(F)cc54)CC3)C2)c1` the melting point was 67 to 70 °C.
`COc1ccc2c(c1)C13CCCCC1(CC2)CCN3C` (stereo not drawn) showed a melting point of 100 to 102 °C.
Work on `OCc1cc(COc2ccc(Cl)cc2Cl)cc(OCc2ccccc2)c1` yielded a melting point of 85 to 88 °C.
Compound `CCOCc1nc2c(cc(C)n3nnnc23)n1CC(C)C` has a melting point of 158 to 160 °C.
With `CCOC(=O)C1Cc2ccc(NC)cc2NC1=O` (stereo not drawn) the melting point was 171 to 172 °C.
For `COC(OC)C(=O)C=Cc1ccc(-c2cccs2)s1`, the melting point was 74 °C.
Work on `O=C(Nc1cccc2c1C(=O)N(CC(=O)N1CCN(c3ccncc3)CC1)C2=O)c1ccc(Cl)s1` yielded a melting point of 207 °C.
With `Cc1cc(=O)c(OCc2ccccc2)c(CO)o1` the melting point was 115 to 116 °C.
Compound `COc1cc(O)cc2c1C(Br)=C(c1ccc(O)cc1)C2=O` has a melting point of 210 °C.
With `Oc1ccc(-c2cc3cc(O)ccc3o2)cc1` the melting point was 218 to 222 °C.
In the case of `C=CCNc1nc(NCC)c2scc(C)c2n1`, the melting point was 96 to 97 °C.
In the case of `Cn1nc(-c2cccnc2)nc1-c1cccnc1`, the melting point was 148 to 149 °C.
For `O=C(c1ccc(-c2ccccc2)cc1)C(Br)CCCl` (stereo not drawn), the melting point was 85 to 88 °C.
With `Oc1cccc2c1c1cccc(Cl)c1n2Cc1ccc(F)cc1` the melting point was 142 to 145 °C.
`CC(=O)C(=NNc1cccc(Cl)c1)Sc1ccc(Cl)cc1` showed a melting point of 128 to 131 °C.
`CC(C)(C)c1ccc(/C=N/OCc2ccc(C(=O)O)c(Br)c2)cc1` gave a melting point of 162 to 163 °C.
For `Cc1c(C(=O)Nc2ccc(N3CCC(N4CCCCC4)CC3)c(C#N)c2)cnn1-c1ccc(Cl)cc1`, the melting point was 252 °C.
In the case of `CCCCc1nc([N+](=O)[O-])c(CSc2ccccc2C(=O)O)n1Cc1ccc(C(=O)O)cc1`, the melting point was 246 to 247 °C.
In the case of `Clc1ccc(OCC2CCCC(OC(CBr)c3ccc(Cl)cc3Cl)O2)c(Cl)c1` (stereo not drawn), the melting point was 104 to 105 °C.
With `CC(C)(C)OC(=O)NC(COCc1ccccc1)c1nc2c(C(F)(F)F)cccc2c(O)c1C(=O)Nc1nccs1` (stereo not drawn) the melting point was 208 °C.
Compound `Cc1c(NC(=O)c2ccc(OCC3CCOC3)cc2)ccc2cc(CNC(C)C)cnc12` (stereo not drawn) has a melting point of 106 °C.
Compound `CC(=O)SCCS(C)(=O)=O` has a melting point of 57 to 59 °C.
Compound `Cc1cccc(NC(=O)c2ccccc2)c1Cl` has a melting point of 125 to 126 °C.
In the case of `Cc1ccc(-c2cc(C(=O)O)nn2Cc2ccc(C)c(Cl)c2)cc1`, the melting point was 108 °C.
With `CCOc1ccc2c(c1)n(C1CCCCC1)c(=O)n2S(=O)(=O)c1ccc(C(=O)Nc2nccs2)cc1OC` the melting point was 213 °C.
Work on `CCCc1nc(C(C)C)c(C(=O)OCc2ccc(-c3ccccc3C(=O)C(=O)O)cc2)[nH]1` yielded a melting point of 177 to 178 °C.
Compound `CN1CCC(c2c[nH]c3ccc(Sc4ccccc4)cc23)CC1` has a melting point of 147 to 150 °C.
Compound `COc1c(C)c(C)cc(C)c1C(O)(c1ccc(C(C)C)cc1)C1CCN(Cc2ccccc2)CC1` (stereo not drawn) has a melting point of 154 to 156 °C.
`COC(=O)CCc1ccc(OCc2cccc(-c3cccc(C(=O)O)c3)c2)cc1` showed a melting point of 180 to 185 °C.
Work on `CC(C)(C)C(=O)Nc1cccc(N)n1` yielded a melting point of 140 to 141 °C.
`CCCCCS(=O)(=O)NC(=O)/C=C/c1ccc(OCCOC)cc1Oc1ccc(C(F)(F)F)cc1Cl` showed a melting point of 134 to 135 °C.
Work on `C#CCN1C(=O)C2(CCCC2)c2ccccc21` yielded a melting point of 109 to 111 °C.
Compound `O=C1C(CCO)Oc2ccccc2N1Cc1cc(Cl)cc(Cl)c1` (stereo not drawn) has a melting point of 104 to 106 °C.
In the case of `CCCCCCCCCCCCCCCCCCOc1cc(N)cc(OCCCP(=O)(OCC)OCC)c1`, the melting point was 63 to 65 °C.
`O=C(O)c1ccc(-c2ccc3c(c2)CCN(CCN2CCCC2)C3)cc1` gave a melting point of 269 to 271 °C.
Compound `Cc1c(Nc2c(C#N)cnc3sccc23)ccc2[nH]ccc12` has a melting point of 255 °C.
For `COc1ccc(NC(=S)c2ccc(N(C)C)cc2)cc1`, the melting point was 192 °C.
With `COc1ccc(OC)n2nc(N)nc12` the melting point was 223 to 234 °C.
`CNC(=O)[C@H]1CN(c2ccc3c(c2)oc(=O)n3C)C(=O)O1` showed a melting point of 304 to 306 °C.
In the case of `CCc1ccc2oc(=O)c(NC(=O)Nc3ccc(F)cc3F)c(-c3ccccc3C)c2c1`, the melting point was 210 to 211 °C.
With `CC12CCC3c4c(O)cc(O)cc4CCC3C1CCC2=O` (stereo not drawn) the melting point was 245 to 247 °C.
For `CCc1[nH]n(C2CCCC2)c2nc(-c3ccccc3-n3ccnc3)nc(=O)c1-2`, the melting point was 192 to 194 °C.
`Cc1noc2cc3c(cc12)C1(CO3)C(=O)Nc2ccccc21` (stereo not drawn) showed a melting point of 226 to 227 °C.
With `CCCC(=O)NC(=O)C(c1ccccc1)c1ccccc1` the melting point was 205 °C.
Compound `CCCc1nc2c(N)nc(C)c(C)c2n1CCOCc1ccccc1` has a melting point of 99.5 to 100 °C.
With `O=[N+]([O-])c1cnn(-c2c(Cl)cc(C(F)(F)F)cc2Cl)n1` the melting point was 105 °C.
`Cc1ccc(O)c2c1C(C)CC2=O` (stereo not drawn) gave a melting point of 52 to 53 °C.
For `Cc1oc(-c2ccccc2)nc1CCC(O)c1ccc(CCCC2OC(=O)NC2=O)cc1` (stereo not drawn), the melting point was 150 to 151 °C.
Compound `Cc1scc(CO)c1N` has a melting point of 70 to 71 °C.
In the case of `CN1CC(=O)Nc2ccccc2C1`, the melting point was 113 to 114 °C.
With `CCOC(=O)[C@H]1O[C@@H]1C(=O)N[C@H](CNC(=O)c1ccccc1)CC(C)C` the melting point was 126 to 129 °C.
`Cc1ncsc1C(=O)Nc1ccc(-n2nc(C(F)(F)F)cc2C2CC2)c(F)c1` showed a melting point of 95 to 97.6 °C.
`CCN(C(=O)OC(C)(C)C)c1cn(-c2cccnc2)nc1Cl` gave a melting point of 55 to 58 °C.
Work on `C[C@@H](OS(C)(=O)=O)C(=O)N1C(=O)N(C)C[C@H]1C(=O)OCc1ccccc1` yielded a melting point of 98 to 102 °C.
Work on `O=C(Nc1ccc(C(F)(F)F)cc1)c1cc(-c2ccc(F)cc2F)ccc1O` yielded a melting point of 227 to 228 °C.
Compound `CCCC=Cc1c(C(C)C)nc(C(C)C)c(CO)c1-c1cccc(F)c1` has a melting point of 117 to 118 °C.
In the case of `COc1cccc2nc(C(F)(F)F)oc(=O)c12`, the melting point was 88 to 91 °C.
Compound `COc1ccc(OC(CCCN(C)C2C3CCC2CNC3)c2ccc(C#N)cc2)cc1OC` (stereo not drawn) has a melting point of 47 to 53 °C.
In the case of `CCc1[nH]n(C2CCCC2)c2nc(-n3ccnc3)nc(=O)c1-2`, the melting point was 228 to 230 °C.
With `COc1ccc(-c2cnc[nH]c2=O)cc1OC` the melting point was 205 to 206 °C.
Work on `Cc1sc(-c2cn[nH]c2)nc1O` yielded a melting point of 124 to 125 °C.
